In US9120785B2, “Pyridyl aminopyridines as Syk inhibitors” (Merck Sharp & Dohme Corp., priority 2011, dated 2015) one finds IC50 data, which are given here for 23 molecules.

pIC50: −log10 of the molar value. Read-outs that look alike come from different tables or passages of the source. A value given as a limit tells only on which side of the number the result lay.

The test concerns the target recombinant human GST-Syk (Homo sapiens (Human), UniProt P43405). Put plainly: Homogeneous Time-Resolved Fluorescence (HTRF) assay for the recombinant human Syk enzyme. It counts as biochemical. The settings on record: recombinant human GST-Syk 5 pM, ATP 25 μM; for pIC50: class symbols, read-out: rhSyk activity (IC50); for IC50: 10-dose titration, read-out: rhSyk (nM) IC50. How it is done:
Homogeneous Time-Resolved Fluorescence (HTRF) Assay for the Recombinant Human Syk Enzyme:
A recombinant GST-hSyk fusion protein was used to measure potency of compounds to inhibit human Syk activity. The recombinant human GST-Syk ([…] #08-176) (5 pM final concentration) was incubated with various concentrations of the inhibitor diluted in DMSO (0.1% final concentration) for 10 minutes at room temperature in 15 mM Tris-HCl (pH 7.5), 0.01% tween 20, 2 mM DTT in 384 well plate format. To initiate the reaction the biotinylated substrate peptide (250 nM final concentration) that contains the phosphorylation site for Syk was added with magnesium (5 mM final concentration) and ATP (25 μM final concentration). Final volume of the reaction was 10 μL. Phosphorylation of the peptide was allowed to proceed for 45 minutes at room temperature. To quench the reaction and detect the phosphorylated product, 2 nM of a Europium-anti-phosphotyrosine antibody (Perkin Elmer #AD0161) and 70 nM SA-APC (Perkin-Elmer #CR130-100) were added together in 15 mM Tris pH 7.5, 40 mM EDTA, 0.01% tween 20. Final volume of the quenching solution was 10 μL. The resulting HTRF signal was measured after 30 minutes on an EnVision (Perkin-Elmer) reader using a time-resolved fluorescence protocol.
On the technique in general: Time-resolved FRET reads energy transfer from a long-lived donor to a nearby acceptor.

`Cc1cc(Nc2cc(C(F)(F)F)ccn2)nc(-c2cnc(C(C)(O)C3CCC(C(=O)O)C(C)C3)s2)c1` (stereo not shown) [Example 15-14, 4-{1-hydroxy-1-[5-(4-methyl-6-{[4-(trifluoromethyl)pyridin-2-yl]amino}pyridin-2-yl)-1,3-thiazol-2-yl]ethyl}-2-methylcyclohexanecarboxylic acid]: the pIC50 (usually the negative decadic logarithm of the IC50, by convention in mol/L) was at least 7.00.

For the molecule `Cc1cc(Nc2cc(C(F)(F)F)ccn2)nc(-c2cnc(C(C)(O)C3CCC(C(=O)O)C(C)C3)s2)c1` (single isomer, unassigned) [Example 15-8, 4-{1-hydroxy-1-[5-(4-methyl-6-{[4-(trifluoromethyl)pyridin-2-yl]amino}pyridin-2-yl)-1,3-thiazol-2-yl]ethyl}-2-methylcyclohexanecarboxylic acid], the pIC50 was at least 7.00.

Regarding `CCC(O)(c1ncc(-c2cc(C)cc(Nc3cc(C4CC4)ccn3)n2)s1)[C@H]1CC[C@H](C(=O)O)CC1` (single isomer, unassigned) [Example 1, Enantiomer 1, trans-4-[1-(5-{6-[(4-cyclopropylpyridin-2-yl)amino]-4-methylpyridin-2-yl}-1,3-thiazol-2-yl)-1-hydroxypropyl]cyclohexanecarboxylic acid], the IC50 (as a rule, the concentration that inhibits the measured activity by half) came to 2.9 nM and the pIC50 was at least 7.00.

On to `Cc1cc(Nc2cc(C(F)(F)F)ccn2)nc(-c2cnc(C(C)(O)C3CCC(C(=O)O)C(C)C3)s2)c1` (single isomer, unassigned) [Example 15-7, 4-{1-hydroxy-1-[5-(4-methyl-6-{[4-(trifluoromethyl)pyridin-2-yl]amino}pyridin-2-yl)-1,3-thiazol-2-yl]ethyl}-2-methylcyclohexanecarboxylic acid], for which the pIC50 is at least 7.00.

Consider `Cc1cc(Nc2cc(C(F)(F)F)ccn2)nc(-c2cnc(C(C)(O)C3CCC(C(=O)O)C(C)C3)s2)c1` (single isomer, unassigned) [Example 15-13, 4-{1-hydroxy-1-[5-(4-methyl-6-{[4-(trifluoromethyl)pyridin-2-yl]amino}pyridin-2-yl)-1,3-thiazol-2-yl]ethyl}-2-methylcyclohexanecarboxylic acid], for which the pIC50 is at least 7.00.

`COc1ccnc(Nc2cccc(-c3cnc(C(C)(O)[C@H]4CC[C@H](C(=O)O)C(C)(C)C4)s3)n2)c1` (stereo partly drawn) [Example 14-49, (1S,4S)-4-[1-hydroxy-1-(5-{6-[(4-methoxypyridin-2-yl)amino]pyridin-2-yl}-1,3-thiazol-2-yl)ethyl]-2,2-dimethylcyclohexanecarboxylic acid]: the pIC50 was at least 7.00.

Consider `Cc1cc(Nc2cc(C(F)(F)F)ccn2)nc(-c2cnc(C(C)(O)C3CCC(C(=O)O)C(C)C3)s2)c1` (single isomer, unassigned) [Example 15-6, 4-{1-hydroxy-1-[5-(4-methyl-6-{[4-(trifluoromethyl)pyridin-2-yl]amino}pyridin-2-yl)-1,3-thiazol-2-yl]ethyl}-2-methylcyclohexanecarboxylic acid], for which the pIC50 was at least 7.00.

Regarding `Cc1cc(Nc2cc(C(F)(F)F)ccn2)nc(-c2cnc(C(C)(O)C3CCC(C(=O)O)C(C)C3)s2)c1` (single isomer, unassigned) [Example 15-3, 4-{1-hydroxy-1-[5-(4-methyl-6-{[4-(trifluoromethyl)pyridin-2-yl]amino}pyridin-2-yl)-1,3-thiazol-2-yl]ethyl}-2-methylcyclohexanecarboxylic acid], the pIC50 is at least 7.00.

Take `Cc1ccnc(Nc2cccc(-c3cnc(C(C)(O)[C@H]4CC[C@H](C(=O)O)C(C)(C)C4)s3)n2)c1` (stereo partly drawn) [Example 14-47, (1S,4S)-4-[1-hydroxy-1-(5-{6-[(4-methylpyridin-2-yl)amino]pyridin-2-yl}-1,3-thiazol-2-yl)ethyl]-2,2-dimethylcyclohexanecarboxylic acid]: the pIC50 is at least 7.00.

As for “butyl trans-4-[1-hydroxy-1-(5-{6-[(4-methoxypyridin-2-yl)amino]-4-methylpyridin-2-yl}-1,3-thiazol-2-yl)ethyl]cyclohexanecarboxylate [Example 14-2]”, the IC50 was 219 nM and the pIC50 is 6.00 to 7.00.

With `Cc1ccnc(Nc2cccc(-c3cnc(C(C)(O)[C@H]4CC[C@H](C(=O)O)CC4)s3)n2)c1` (single isomer, unassigned) [Example 14-39, trans-4-[1-hydroxy-1-(5-{6-[(4-methylpyridin-2-yl)amino]pyridin-2-yl}-1,3-thiazol-2-yl)ethyl]cyclohexanecarboxylic acid], the pIC50 was at least 7.00.

For `CCC(O)(c1ncc(-c2cc(C)cc(Nc3cc(OC(C)C)ccn3)n2)s1)[C@H]1CC[C@H](C(=O)O)CC1` (single isomer, unassigned) [Example 14-22, trans-4-{1-hydroxy-1-[5-(4-methyl-6-{[4-(propan-2-yloxy)pyridin-2-yl]amino}pyridin-2-yl)-1,3-thiazol-2-yl]propyl}cyclohexanecarboxylic acid], the pIC50 is at least 7.00.

`Cc1cc(Nc2cc(OC(C)C)ccn2)nc(-c2cnc(C(O)(C3CC3)[C@H]3CC[C@H](C(=O)O)CC3)s2)c1` (single isomer, unassigned) [Example 14-23, trans-4-{cyclopropyl(hydroxy)[5-(4-methyl-6-{[4-(propan-2-yloxy)pyridin-2-yl]amino}pyridin-2-yl)-1,3-thiazol-2-yl]methyl}cyclohexanecarboxylic acid]: the pIC50 is at least 7.00.

As for `Cc1cc(Nc2cc(C)c(Cl)cn2)nc(-c2cnc(C(C)(O)[C@H]3CC[C@H](C(=O)O)CC3)s2)c1` (relative stereo) [Example 14-5, trans-4-[1-(5-{6-[(5-chloro-4-methylpyridin-2-yl)amino]-4-methylpyridin-2-yl}-1,3-thiazol-2-yl)-1-hydroxyethyl]cyclohexanecarboxylic acid], the pIC50 was at least 7.00.

As to `CC(O)(c1ncc(-c2cc(Cl)cc(Nc3cc(C(F)(F)F)ccn3)n2)s1)[C@H]1CC[C@H](C(=O)O)CC1` (single isomer, unassigned) [Example 14-52, trans-4-{1-[5-(4-chloro-6-{[4-(trifluoromethyl)pyridin-2-yl]amino}pyridin-2-yl)-1,3-thiazol-2-yl]-1-hydroxyethyl}cyclohexanecarboxylic acid], the pIC50 is at least 7.00.

As to `CC(O)(c1ncc(-c2cc(C3CC3)cc(Nc3cc(C(F)(F)F)ccn3)n2)s1)[C@H]1CC[C@H](C(=O)O)CC1` (single isomer, unassigned) [Example 14-54], the pIC50 is at least 7.00.

For the molecule `Cc1ccnc(Nc2cc(C)cc(-c3cnc(C(C)(O)[C@H]4CC[C@H](C(=O)O)C(C)(C)C4)s3)n2)c1` (stereo partly drawn) [Example 14-33, (1S,4S)-4-[1-hydroxy-1-(5-{4-methyl-6-[(4-methylpyridin-2-yl)amino]pyridin-2-yl}-1,3-thiazol-2-yl)ethyl]-2,2-dimethylcyclohexanecarboxylic acid], the pIC50 is at least 7.00.

Consider `Cc1cc(Nc2cccc(-c3cnc(C(C)(O)[C@H]4CC[C@H](C(=O)O)CC4)s3)n2)ncc1F` (single isomer, unassigned) [Example 5, trans-4-[(1R or 1S)-1-(5-{6-[(5-Fluoro-4-methylpyridin-2-yl)amino]pyridin-2-yl}-1,3-thiazol-2-yl)-1-hydroxyethyl]cyclohexanecarboxylic acid], for which the pIC50 was at least 7.00.

With `CCC(O)(c1ncc(-c2cc(C)cc(Nc3cc(C4CC4)ccn3)n2)s1)[C@H]1CC[C@H](C(N)=O)CC1` (single isomer, unassigned) [Example 2, Enantiomer 1, trans-4-[1-(5-{6-[(4-cyclopropylpyridin-2-yl)amino]-4-methylpyridin-2-yl}-1,3-thiazol-2-yl)-1-hydroxypropyl]cyclohexanecarboxamide], the pIC50 was at least 7.00.

On to `Cc1cc(Nc2cc(C(F)(F)F)ccn2)nc(-c2cnc(C(C)(O)[C@@H]3CC[C@H](C(=O)O)C(C)(C)C3)s2)c1` (stereo partly drawn) [Example 14-30, (1S,4R)-4-{1-hydroxy-1-[5-(4-methyl-6-{[4-(trifluoromethyl)pyridin-2-yl]amino}pyridin-2-yl)-1,3-thiazol-2-yl]ethyl}-2,2-dimethylcyclohexanecarboxylic acid], for which the pIC50 is at least 7.00.

With `Cc1cc(Nc2cc(C(F)(F)F)ccn2)nc(-c2cnc(C(C)(O)C3CCC(C(=O)O)C(C)C3)s2)c1` (single isomer, unassigned) [Example 15-12, 4-{1-hydroxy-1-[5-(4-methyl-6-{[4-(trifluoromethyl)pyridin-2-yl]amino}pyridin-2-yl)-1,3-thiazol-2-yl]ethyl}-2-methylcyclohexanecarboxylic acid], the pIC50 was at least 7.00.

As to `Cc1ccnc(Nc2cccc(-c3cnc(C(C)(O)[C@H]4CC[C@H](C(=O)O)C(C)(C)C4)s3)n2)c1` (stereo partly drawn) [Example 14-46, (1S,4S)-4-[1-hydroxy-1-(5-{6-[(4-methylpyridin-2-yl)amino]pyridin-2-yl}-1,3-thiazol-2-yl)ethyl]-2,2-dimethylcyclohexanecarboxylic acid], the pIC50 is at least 7.00.

In the case of `CC(C)c1ccnc(Nc2cccc(-c3cnc(C(C)(O)[C@H]4CC[C@H](C(=O)O)CC4)s3)n2)c1` (relative stereo) [Example 14-43, trans-4-{1-hydroxy-1-[5-(6-{[4-(propan-2-yl)pyridin-2-yl]amino}pyridin-2-yl)-1,3-thiazol-2-yl]ethyl}cyclohexanecarboxylic acid], the pIC50 is at least 7.00.
